Source: paper PMC4967831, “Structural dissection of a complex Bacteroides ovatus gene locus conferring xyloglucan metabolism in the human gut” (Open Biology, 2016)
Blank lines part the entries; values can stand above or below the molecule they belong to.

Experiments:
Format in all cases: binding
BoGH43A [1] = target: T1, BoGH43A (Bacteroides ovatus, UniProt A7LXT8); experiment: crystal structure of the complex (soak); too weak to be measured by ITC
T1 construct: gene BACOVA_02654; pET28a construct with N-terminal His6-tag

BoGH31 = target: T2, BoGH31 (Bacteroides ovatus, UniProt A7LXT0); experiment: crystal structure of covalent glycosyl-enzyme intermediate (soak)
T2 construct: gene BACOVA_02646; pET-YSBL3C construct with N-terminal His6-tag and 3C-cleavage site

BoGH43A [2] = target: T1, BoGH43A; experiment: ITC and crystal structure of the complex
BoGH43B = target: T3, BoGH43B (Bacteroides ovatus, UniProt A7LXU0); experiment: ITC
T3 construct: gene BACOVA_02656; expressed from pET21a(BoGH43B)
T3 sequence (A7LXU0 24-529): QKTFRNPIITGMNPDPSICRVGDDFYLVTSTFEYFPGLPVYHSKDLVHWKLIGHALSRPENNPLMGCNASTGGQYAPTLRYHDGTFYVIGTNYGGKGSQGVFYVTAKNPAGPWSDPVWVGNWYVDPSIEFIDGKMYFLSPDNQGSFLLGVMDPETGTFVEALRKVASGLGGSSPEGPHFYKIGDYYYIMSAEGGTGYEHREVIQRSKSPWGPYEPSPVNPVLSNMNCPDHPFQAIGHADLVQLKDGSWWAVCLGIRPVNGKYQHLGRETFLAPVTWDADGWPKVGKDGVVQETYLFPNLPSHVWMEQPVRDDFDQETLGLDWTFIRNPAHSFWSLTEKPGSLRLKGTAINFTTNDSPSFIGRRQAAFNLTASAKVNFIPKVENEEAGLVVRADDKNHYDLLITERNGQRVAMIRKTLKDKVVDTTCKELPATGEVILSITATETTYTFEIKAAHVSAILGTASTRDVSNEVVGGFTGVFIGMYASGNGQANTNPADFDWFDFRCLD

BoGH3B = target: T4, BoGH3B (Bacteroides ovatus, UniProt A7LXU3); experiment: crystal structure; glucose co-purified in the active site
T4 construct: gene BACOVA_02659; expressed from pET21a(GH3B)
T4 sequence (A7LXU3 23-786): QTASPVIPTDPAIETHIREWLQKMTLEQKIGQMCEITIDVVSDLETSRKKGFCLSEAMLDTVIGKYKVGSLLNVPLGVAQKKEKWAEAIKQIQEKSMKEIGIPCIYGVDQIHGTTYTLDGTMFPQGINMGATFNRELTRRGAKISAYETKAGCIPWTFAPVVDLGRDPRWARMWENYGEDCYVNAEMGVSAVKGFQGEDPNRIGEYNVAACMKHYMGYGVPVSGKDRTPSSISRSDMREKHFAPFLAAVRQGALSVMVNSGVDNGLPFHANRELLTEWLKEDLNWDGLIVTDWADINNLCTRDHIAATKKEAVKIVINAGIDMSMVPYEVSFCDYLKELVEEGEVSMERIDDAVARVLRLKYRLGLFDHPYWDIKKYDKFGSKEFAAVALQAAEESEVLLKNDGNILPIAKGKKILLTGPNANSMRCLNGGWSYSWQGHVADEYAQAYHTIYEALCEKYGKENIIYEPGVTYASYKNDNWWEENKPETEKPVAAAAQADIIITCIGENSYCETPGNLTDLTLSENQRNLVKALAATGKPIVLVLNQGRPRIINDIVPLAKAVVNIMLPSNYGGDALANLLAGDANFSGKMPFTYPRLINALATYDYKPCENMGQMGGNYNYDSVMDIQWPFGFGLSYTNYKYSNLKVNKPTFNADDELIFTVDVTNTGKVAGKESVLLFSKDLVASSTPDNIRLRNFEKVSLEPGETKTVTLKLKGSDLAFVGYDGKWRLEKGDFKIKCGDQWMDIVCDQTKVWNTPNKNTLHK

T1 sequence (A7LXT8 21-526): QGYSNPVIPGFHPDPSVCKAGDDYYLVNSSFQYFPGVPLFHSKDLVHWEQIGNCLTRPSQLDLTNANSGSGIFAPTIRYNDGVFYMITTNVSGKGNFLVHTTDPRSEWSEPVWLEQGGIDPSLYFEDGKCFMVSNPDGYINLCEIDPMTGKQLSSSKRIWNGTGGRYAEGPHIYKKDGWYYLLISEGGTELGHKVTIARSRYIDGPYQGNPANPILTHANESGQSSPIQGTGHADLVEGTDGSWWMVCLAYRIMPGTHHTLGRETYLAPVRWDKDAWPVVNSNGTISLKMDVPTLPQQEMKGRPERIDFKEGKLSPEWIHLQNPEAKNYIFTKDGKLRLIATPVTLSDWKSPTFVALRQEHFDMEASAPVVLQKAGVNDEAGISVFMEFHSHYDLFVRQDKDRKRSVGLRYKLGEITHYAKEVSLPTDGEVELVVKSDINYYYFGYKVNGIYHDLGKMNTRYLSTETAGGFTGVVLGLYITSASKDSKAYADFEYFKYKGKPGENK
T2 sequence (A7LXT0 22-954): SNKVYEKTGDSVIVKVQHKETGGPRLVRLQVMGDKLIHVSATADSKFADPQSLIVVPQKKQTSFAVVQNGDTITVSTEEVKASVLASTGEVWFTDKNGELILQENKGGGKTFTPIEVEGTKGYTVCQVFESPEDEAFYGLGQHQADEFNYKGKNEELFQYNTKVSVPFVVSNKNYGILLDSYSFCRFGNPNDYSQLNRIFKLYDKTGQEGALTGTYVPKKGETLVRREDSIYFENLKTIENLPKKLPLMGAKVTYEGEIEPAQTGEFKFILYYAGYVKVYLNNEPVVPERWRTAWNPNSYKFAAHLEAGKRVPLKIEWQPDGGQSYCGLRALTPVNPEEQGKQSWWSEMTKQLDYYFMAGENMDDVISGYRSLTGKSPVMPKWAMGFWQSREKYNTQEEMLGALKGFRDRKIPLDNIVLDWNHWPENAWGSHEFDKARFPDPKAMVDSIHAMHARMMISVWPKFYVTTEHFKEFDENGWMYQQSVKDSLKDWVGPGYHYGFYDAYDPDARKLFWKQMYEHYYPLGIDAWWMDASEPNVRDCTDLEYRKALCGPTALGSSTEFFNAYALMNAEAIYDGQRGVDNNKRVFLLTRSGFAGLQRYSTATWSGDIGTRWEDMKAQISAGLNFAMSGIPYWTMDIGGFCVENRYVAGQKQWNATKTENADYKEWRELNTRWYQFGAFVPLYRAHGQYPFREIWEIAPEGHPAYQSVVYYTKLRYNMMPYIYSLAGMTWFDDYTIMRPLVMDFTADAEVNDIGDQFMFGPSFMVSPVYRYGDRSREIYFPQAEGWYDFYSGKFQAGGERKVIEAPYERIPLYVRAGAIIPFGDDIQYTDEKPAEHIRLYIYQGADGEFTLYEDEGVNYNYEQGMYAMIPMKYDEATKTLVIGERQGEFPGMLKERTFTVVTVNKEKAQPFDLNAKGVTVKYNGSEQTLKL

Compound: OC[C@@H]1O/C(=N\O)[C@H](O)[C@H]1O [AraLOG, (Z)-L-Arabinonhydroximo-1,4-lactone]
- crystal structure of the complex (soak); too weak to be measured by ITC (BoGH43A [1]): the inhibitor stacking against Tyr187 while also H-bonding directly to the side chains of Glu210 and Glu189

Compound: OC[C@]1(F)O[C@H](F)[C@H](O)[C@@H](O)[C@@H]1O [5FIdoF, 5-fluoro-β-L-idosyl fluoride]
- crystal structure of covalent glycosyl-enzyme intermediate (soak) (BoGH31): 5FIdoF forms an α-glycosidic linkage to the side-chain carboxylate of Asp553

- Kd (BoGH43A [2]): 35 ± 4 µM
- Kd (BoGH43B): 111 ± 6 µM
Compound: OC[C@@H]1NC[C@H](O)[C@H]1O [AraDNJ]

Compound: OC[C@H]1O[C@@H](O)[C@H](O)[C@@H](O)[C@@H]1O [glucose]
- crystal structure; glucose co-purified in the active site (BoGH3B): BoGH3B was found to co-purify with glucose in its active site (figure 5b)
